What was measured:
Assay in all cases: area under growth-rate inhibition curve (AUC GRI) (dimensionless (GR-based AUC)); higher = less growth inhibition
Conditions in all cases: exposure time: 72 h; concentrations: 0.1, 1, 10 uM
BT474-P = test system: BT474-P
Outline: (§1)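 The area under the growth-rate inhibition curve was measured in six breast cancer cell line models, covering triple-negative lines and HER2+ lines, both parental and resistant to a two-drug combination. Cells were exposed to compound at 0.1, 1 or 10 µM for 72 h, fixed in 4% paraformaldehyde, and nuclei were stained with Hoechst 33342 or DAPI for imaging and counting. Day 0 plates, untreated Day 3 plates and DMSO controls served to correct growth across 2 biological replicates.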

MDA-MB-468 = test system: MDA-MB-468
Outline: as §1

SKBR3-LTR = test system: SKBR3-LTR
Outline: as §1

MDA-MB-231 = test system: MDA-MB-231
Outline: as §1

BT474-LTR = test system: BT474-LTR
Outline: as §1

SKBR3-P = test system: SKBR3-P
Outline: as §1

Row | SMILES | area under growth-rate inhibition curve (BT474-P) | area under growth-rate inhibition curve (MDA-MB-468) | area under growth-rate inhibition curve (SKBR3-LTR) | area under growth-rate inhibition curve (MDA-MB-231) | area under growth-rate inhibition curve (BT474-LTR) | area under growth-rate inhibition curve (SKBR3-P)
1 | CN(C)CCOc1ccc(/C(=C(/CCCl)c2ccccc2)c2ccccc2)cc1.O=C(O)CC(O)(CC(=O)O)C(=O)O [Toremifene Citrate] | 0.893 | 0.908 | 0.977 | 0.941 | 0.945 | 0.98
2 | O=C(CS(=O)Cc1ccco1)NC/C=C\COc1cc(CN2CCCCC2)ccn1 (stereo unspecified) [Lafutidine] | 1.02 | 1.02 | 1.06 | 1.03 | 1.1 | 0.987
3 | CNCC(=O)c1ccc(O)c(O)c1.Cl [Adrenalone HCl] | 1.04 | 1.02 | 1.07 | 0.964 | 1.1 | 1.03
4 | C=CCC1(O)CCC2C3CCC4=CC(=O)CCC4=C3C=CC21C (stereo unspecified) [Altrenogest] | 0.953 | 1 | 1.08 | 1.03 | 1.01 | 1.04
5 | O=C1CCc2cc(OCCCCc3nnnn3C3CCCCC3)ccc2N1 [Cilostazol] | 1 | 1.03 | 1.06 | 1.05 | 1.04 | 1.03
6 | CN1CCCCC1Cn1cc(C(=O)c2cc([N+](=O)[O-])ccc2I)c2ccccc21 (stereo unspecified) [AM1241] | 0.977 | 0.972 | 1.02 | 0.987 | 1 | 0.998
7 | C[C@H]1CN(C[C@H](Cc2ccccc2)C(=O)NCC(=O)O)CC[C@@]1(C)c1cccc(O)c1 [Alvimopan] | 0.995 | 1.03 | 1.04 | 1.03 | 1.03 | 1.02
8 | COc1ccc(C(=O)N2CCCC2=O)cc1 [Aniracetam] | 1.04 | 1.02 | 1 | 1.01 | 1.08 | 1.01
9 | CC(C)c1cc(-c2ccc(F)c3ccccc23)nc(N)n1 | 1.03 | 1 | 1.07 | 0.999 | 1.08 | 1.03
10 | CN(C)C(=O)C(CCN1CCC(O)(c2ccc(Cl)cc2)CC1)(c1ccccc1)c1ccccc1.[Cl-].[H+] [Loperamide HCl] | 0.882 | 0.911 | 1 | 1.03 | 0.94 | 0.943
11 | Cc1cc(NC(=O)Nc2ccc(N(C)C)cc2)c2cc(F)cc(F)c2n1 | 0.963 | 0.951 | 0.958 | 0.936 | 0.977 | 1
12 | CN(C)[C@@H](CCOc1cccc2ccccc12)c1ccccc1.[Cl-].[H+] [Dapoxetine HCl] | 0.985 | 0.991 | 1.03 | 1.02 | 1.03 | 0.974
13 | COCCc1ccc(OCC(O)CNC(C)C)cc1.O=C(O)C(O)C(O)C(=O)O (stereo unspecified) [Metoprolol Tartrate] | 0.987 | 0.98 | 0.997 | 1.01 | 1.01 | 0.999
14 | CC(C(O)c1ccc(O)cc1)N1CCC(Cc2ccccc2)CC1.CC(C(O)c1ccc(O)cc1)N1CCC(Cc2ccccc2)CC1.O=C(O)C(O)C(O)C(=O)O (stereo unspecified) [Ifenprodil Tartrate] | 1.02 | 0.985 | 0.997 | 1.04 | 1.01 | 0.985
15 | C[C@@]12N[C@@H](Cc3ccccc31)c1ccccc12.O=C(O)/C=C/C(=O)O [(-)-MK 801 Maleate] | 1.03 | 1.04 | 1.06 | 1.03 | 1.08 | 1.03
16 | CNS(=O)(=O)Cc1ccc2[nH]cc(CCN(C)C)c2c1.O=C(O)CCC(=O)O [Sumatriptan Succinate] | 1.05 | 1.03 | 1.06 | 1.02 | 1.1 | 1.04
17 | CN1C2CCC1CC(OC(=O)C(CO)c1ccccc1)C2 (stereo unspecified) [Atropine] | 1.04 | 1.04 | 1.09 | 1.03 | 1.11 | 1.03
18 | Nc1nc2c(cnn2CCc2ccccc2)c2nc(-c3ccco3)nn12 | 0.99 | 0.781 | 0.902 | 1 | 0.94 | 0.666
19 | O=C(OC1C[N+]2(CCCOc3ccccc3)CCC1CC2)C(O)(c1cccs1)c1cccs1.[Br-] (stereo unspecified) [Aclidinium Bromide] | 1.01 | 1.03 | 1.02 | 1.03 | 0.997 | 0.988
20 | NCC(=O)O [Glycine] | 1.03 | 1.03 | 1.06 | 1.04 | 1.05 | 1.03
21 | Cc1cccc(C(C)c2c[nH]cn2)c1C (stereo unspecified) [Dexmedetomidine] | 1.04 | 1.02 | 1.04 | 1.04 | 1.1 | 1.04

— the supplement of paper PMC9763283
